{
  "source": "paper PMC8596132",
  "about": "(Advanced Science, 2021)",
  "key": {"TRPM8 channel": {"target": "T1, TRPM8 channel (Mus musculus, UniProt Q8R4D5)", "T1 construct": "expressed in transfected cells; host or cells: HEK293 / HEK293T cells", "T1 sequence (Q8R4D5 whole entry)": "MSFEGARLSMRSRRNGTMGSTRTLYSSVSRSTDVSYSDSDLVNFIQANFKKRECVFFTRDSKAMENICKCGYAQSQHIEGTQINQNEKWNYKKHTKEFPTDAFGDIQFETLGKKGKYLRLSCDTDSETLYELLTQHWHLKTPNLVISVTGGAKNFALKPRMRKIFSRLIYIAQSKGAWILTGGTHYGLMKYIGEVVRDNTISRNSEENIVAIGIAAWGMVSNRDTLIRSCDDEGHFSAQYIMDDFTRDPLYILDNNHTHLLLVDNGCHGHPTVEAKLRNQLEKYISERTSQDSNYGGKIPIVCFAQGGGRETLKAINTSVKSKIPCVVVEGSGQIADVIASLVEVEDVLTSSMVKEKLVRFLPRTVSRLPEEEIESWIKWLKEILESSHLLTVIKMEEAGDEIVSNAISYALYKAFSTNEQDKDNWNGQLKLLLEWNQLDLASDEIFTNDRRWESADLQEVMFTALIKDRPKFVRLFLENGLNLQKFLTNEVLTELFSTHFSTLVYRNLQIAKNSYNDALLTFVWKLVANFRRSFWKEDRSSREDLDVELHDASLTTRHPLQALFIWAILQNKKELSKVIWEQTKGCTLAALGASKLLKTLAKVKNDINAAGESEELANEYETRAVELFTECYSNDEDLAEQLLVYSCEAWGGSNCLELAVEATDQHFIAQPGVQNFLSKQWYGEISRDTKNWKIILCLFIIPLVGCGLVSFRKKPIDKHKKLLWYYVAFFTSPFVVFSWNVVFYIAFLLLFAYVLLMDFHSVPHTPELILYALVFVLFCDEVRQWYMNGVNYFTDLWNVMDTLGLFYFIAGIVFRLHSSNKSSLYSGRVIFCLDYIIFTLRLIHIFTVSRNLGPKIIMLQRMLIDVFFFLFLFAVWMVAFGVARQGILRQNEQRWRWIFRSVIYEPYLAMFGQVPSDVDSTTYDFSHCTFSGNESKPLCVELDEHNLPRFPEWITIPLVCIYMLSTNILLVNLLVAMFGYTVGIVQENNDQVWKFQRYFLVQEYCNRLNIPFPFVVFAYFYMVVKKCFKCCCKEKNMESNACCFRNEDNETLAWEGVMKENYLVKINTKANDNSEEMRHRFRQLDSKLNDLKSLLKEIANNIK", "assay": "single-channel patch-clamp recording, menthol activation (outside-out)", "assay_type": "cell-based", "conditions": "+80 mV", "procedure": "(§1) Electrophysiological experiments were performed between 24 and 48 h after transfections. Specifically, single‐channel recordings were conducted about […] after transfection.\n(§2) Patch‐clamp recordings were performed with a HEKA EPC10 amplifier with PatchMaster software (HEKA) in the whole‐cell, inside‐out, or outside‐out configuration. For whole cell recordings, patch pipettes were prepared from borosilicate glass and fire‐polished to a resistance of ≈3–6 MΩ. Serial resistance was compensated by 60%. Whole‐cell recordings were performed at ±80 mV. For single‐channel recordings, patch pipettes were fire‐polished to a higher resistance of 6–8 MΩ. Current signal was sampled at 10 kHz and filtered at 2.9 kHz. Membrane potential was clamped at +80 mV. All recordings were performed at room temperature (22 °C) with the maximum variation of 1 °C.\nThere were different solutions prepared for different ion channels current recordings. For TRPM8, TRPV1, TRPV2, TRPV3, and TRPA1 channels recording, the standard bath and pipette solution contained: 130 × 10^−3 M NaCl, 0.2 × 10^−3 M EDTA, and 3 × 10^−3 M HEPES, pH = 7.2. For TRPM4 channels recording, solutions with 130 × 10^−3 M NaCl and 3 × 10^−3 M HEPES, pH = 7.2 were used as standard bath solution. The pipette solutions required 500 × 10^−6 M CaCl2 mixing with 130 × 10^−3 M NaCl and 3 × 10^−3 M HEPES, pH = 7.2. TRPM2 currents were recorded with the help of standard bath solution of 147 × 10^−3 M NaCl, 2 × 10^−3 M KCl, 1 × 10^−3 M MgCl2, 10 × 10^−3 M HEPES, 2 × 10^−3 M CaCl2, 13 × 10^−3 M glucose, pH = 7.4 and the pipette solutions of 147 × 10^−3 M NaCl, 1 × 10^−3 M MgCl2, 10 × 10^−3 M HEPES, pH = 7.4. For NaV1.5, NaV1.7 channels, the standard bath solution was 140 × 10^−3 M NaCl, 3 × 10^−3 M KCl, 1 × 10^−3 M MgCl2, 1 × 10^−3 M CaCl2, 10 × 10^−3 M HEPES, pH = 7.2 and standard pipette solution was 140 × 10^−3 M CsF, 1 × 10^−3 M EGTA, 10× 10^−3 M NaCl, 10 × 10^−3 M MgCl2, 3 × 10^−3 M KCl, pH = 7.2. To evoke sodium channel currents, a holding potential of −80 mV was used with a testing pulse to +10 mV. […]"}, "mouse TRPM8 channel": {"target": "T2, mouse TRPM8 channel (Mus musculus, UniProt Q8R4D5)", "T2 construct": "expressed in transfected cells; host or cells: HEK293 / HEK293T cells", "T2 sequence (Q8R4D5 whole entry)": "as above", "assay": "whole-cell patch-clamp recording, menthol activation of TRPM8", "assay_type": "cell-based", "procedure": "HEK293T cells were cultured in Dulbecco's modified Eagle's medium with 10% fetal bovine serum, penicillin (100 U mL^−1), and streptomycin ([…]) at 37 °C with 5% CO2. Transient transfection was conducted by using Lipofectamine 2000 (Invitrogen) and following the instruction manual.\nas §1\nas §2, with “Membrane potential was clamped at +80 mV. All recordings were performed at room temperature (22 °C) with the maximum variation of 1 °C.” left out\n(§3) There were different solutions prepared for different ion channels current recordings. […] TRPM2 currents were recorded with the help of standard bath solution of 147 × 10^−3 M NaCl, 2 × 10^−3 M KCl, 1 × 10^−3 M MgCl2, 10 × 10^−3 M HEPES, 2 × 10^−3 M CaCl2, 13 × 10^−3 M glucose, pH = 7.4 and the pipette solutions of 147 × 10^−3 M NaCl, 1 × 10^−3 M MgCl2, 10 × 10^−3 M HEPES, pH = 7.4. […]"}, "TRPV2": {"target": "T3, TRPV2 (Homo sapiens, UniProt Q9Y5S1)", "T3 construct": "expressed in transfected cells; host or cells: HEK293T", "T3 sequence (Q9Y5S1 1-764)": "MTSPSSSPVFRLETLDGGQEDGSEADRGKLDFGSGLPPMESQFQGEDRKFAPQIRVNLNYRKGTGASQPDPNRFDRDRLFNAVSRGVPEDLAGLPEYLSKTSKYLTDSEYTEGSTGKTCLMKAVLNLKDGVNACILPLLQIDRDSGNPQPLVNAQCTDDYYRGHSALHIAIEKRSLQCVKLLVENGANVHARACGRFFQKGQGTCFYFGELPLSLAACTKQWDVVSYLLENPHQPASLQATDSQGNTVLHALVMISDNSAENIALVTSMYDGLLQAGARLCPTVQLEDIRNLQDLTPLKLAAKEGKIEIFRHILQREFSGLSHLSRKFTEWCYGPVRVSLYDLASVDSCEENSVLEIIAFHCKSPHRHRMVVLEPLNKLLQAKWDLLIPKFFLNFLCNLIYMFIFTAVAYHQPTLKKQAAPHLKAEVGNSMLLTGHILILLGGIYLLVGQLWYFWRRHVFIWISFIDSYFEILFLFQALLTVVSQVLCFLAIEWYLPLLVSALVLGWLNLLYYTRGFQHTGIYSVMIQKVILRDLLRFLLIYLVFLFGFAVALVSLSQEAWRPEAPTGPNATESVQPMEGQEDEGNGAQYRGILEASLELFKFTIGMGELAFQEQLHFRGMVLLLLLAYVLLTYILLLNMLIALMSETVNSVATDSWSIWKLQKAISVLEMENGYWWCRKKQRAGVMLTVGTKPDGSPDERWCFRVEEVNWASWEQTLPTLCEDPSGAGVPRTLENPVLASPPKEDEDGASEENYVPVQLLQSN", "assay": "whole-cell recording, TRPV2 ligand activation", "assay_type": "cell-based", "conditions": "read-out: IC50, inhibition of TRPV2", "procedure": "as §2\nas §3, with “recordings. For TRPM8, TRPV1, TRPV2, TRPV3, and TRPA1 channels recording, the standard bath and pipette solution contained: 130 × 10^−3 M NaCl, 0.2 × 10^−3 M EDTA, and 3 × 10^−3 M HEPES, pH = 7.2. For TRPM4 channels recording, solutions with 130 × 10^−3 M NaCl and 3 × 10^−3 M HEPES, pH = 7.2 were used as standard bath solution.” for “recordings.”"}, "[1]": {"assay": "body temperature measurement", "assay_type": "in vivo", "conditions": "mice, i.v. 30 µg g^−1, rectal temperature up to 24 h, 5-9 animals", "procedure": "Adult CD1 mice (male, 6–8 weeks) were used for behavioral and primary cultures of DRG neurons studies. Mice were group‐housed under the 12 h light‐dark cycle with access to standard food and water ad libitum. All the animal procedures were approved by the Institutional Animal Care & Use Committee (IACUC) of Zhejiang University.\nA digital thermometer (FT3400) was used for body temperature measurement. Adult CD1 male mice were placed into an environmental room maintained at a constant temperature of 22 ± 1 °C. Body temperature was recorded using a rectal probe for mice (FT3400), which was inserted ≈2 cm from the anus. Body temperature was measured before treatment (baseline, BL) and at 5 min, 15 min, 0.5,1,2, 6, and 24 h following DeC‐1.2 (30 mg kg^−1, i.v.) administration."}},
  "note": "Like-named read-outs stand apart in the source and are kept apart here. Bridge positions count the residues as written; N and C are the ends. Peptide text beside a SMILES is read from it.",
  "data": [
    {"smiles": "CC1CCC(C(C)C)C(O)C1", "note": "(stereo not shown) [menthol]", "values": [
      {"measurement": "maximum open probability of TRPM8 activation by menthol", "setting": "TRPM8 channel; saturating menthol 1 × 10^−3 M alone", "value": "about 70%"},
      {"measurement": "single-channel conductance of TRPM8 with menthol", "setting": "TRPM8 channel; saturating menthol 1 × 10^−3 M alone, mean ± SEM, n = 3, SEM", "value": "58.83 ± 1.85", "unit": "pS"}
    ]},
    {"smiles": "C[C@@H]1NC(=O)[C@H](C)NC(=O)[C@H](CCCNC(=N)N)NC(=O)[C@H](CO)NC(=O)[C@H](CC(N)=O)NC(=O)[C@H](CCCNC(=N)N)NC(=O)[C@@H](N)CSSC[C@@H](C(=O)O)NC(=O)[C@H](CCCCN)NC(=O)[C@H](CCC(N)=O)NC(=O)[C@H](CO)NC(=O)[C@H](CC(=O)O)NC(=O)[C@H](Cc2c[nH]cn2)NC1=O", "note": "[DeC‐1.1] (H-CRNSRAAHDSQKC-OH; disulfide 1-13)", "values": [
      {"measurement": "IC50", "setting": "mouse TRPM8 channel; SEM", "value": "133 ± 73.5", "unit": "µM"}
    ]},
    {"smiles": "C[C@@H]1NC(=O)[C@H](CCCNC(=N)N)NC(=O)[C@H](CC(=O)O)NC(=O)[C@H](CCCNC(=N)N)NC(=O)[C@H](CCCNC(=N)N)NC(=O)[C@@H](N)CSSC[C@@H](C(=O)O)NC(=O)[C@H](CCCNC(=N)N)NC(=O)[C@H](CCC(N)=O)NC(=O)[C@H](CCCNC(=N)N)NC(=O)[C@H](Cc2ccc(O)cc2)NC(=O)[C@H](Cc2c[nH]cn2)NC(=O)[C@H](CCCNC(=N)N)NC1=O", "note": "[DeC‐1.2] (H-CRRDRARHYRQRC-OH; disulfide 1-13)", "values": [
      {"measurement": "IC50", "setting": "TRPV2", "value": "~10", "unit": "µM"},
      {"measurement": "open probability of TRPM8 with DeC-1.2 plus menthol", "setting": "TRPM8 channel; outside-out, menthol 1 × 10^−3 M + DeC-1.2 100 × 10^−6 M, mean ± SEM, n = 5, SEM", "value": "18.83 ± 1.92", "unit": "%"},
      {"measurement": "effect on body temperature", "setting": "[1]", "value": "did not significantly alter body temperature"},
      {"measurement": "IC50", "setting": "mouse TRPM8 channel; whole-cell patch clamp, TRPM8 expressed in HEK293 cells, −80 mV, 22 °C, n = 3, mean ± SEM, read-out: IC50, inhibition of menthol-induced TRPM8 activation", "value": "0.0045 ± 0.003", "unit": "µM"}
    ]}
  ]
}
